Patent publication US9296631B2, “Preparation of environmentally acceptable scale inhibitors” (Ecolab USA Inc., priority 2008, dated 2016)

Key:
[1] = OECD 306 biodegradation test, closed bottle method; details: percent of measured COD, no substrate, acidic, non-neutralized form; for BIODEGRADATION by OECD 306 Max, 28 d (%): 28 days; for BIODEGRADATION by OECD 306 Max, 63 d (%): 63 days
Procedure: Full details of the procedure and methods of calculation are publicly available in OECD documents. In all cases, the tests were performed without a substrate and the percent biodegradation was determined as a percentage of the measured chemical oxygen demand (COD).
Each of the datasets presented in Table 1 and FIGS. 2 through 5 were obtained on the products as described in their acidic, non-neutralized forms.

[2] = Scale inhibitor performance, dynamic loop method; details: Field I brine, 128 C, pH 7.7, 10 mL/min; hold time 1 hour
Source text: A number of scale inhibitor performance tests were undertaken using the dynamic loop method. This method is widely used in the oilfield service industry and is designed to evaluate the ability of a candidate scale inhibitor to delay the blockage of a small diameter metal capillary when injected with a scaling brine at constant flow rate under selected test conditions. The test conditions and water compositions are generally selected to represent, at least in-part, the process conditions under which a scale inhibitor might be deployed. The flow rate of the test brine is generally selected to allow the experiment to be performed in a repeatable and controlled manner. […]
Typically, one or more tests without any added scale inhibitor (blank tests) were performed in order to determine the scaling time for the un-inhibited brine under the given test conditions. […] The deposition of scale was monitored by measuring the differential pressure (ΔP) developed across the test capillary over time. […] Alternatively, the concentration of the scale inhibitor can be reduced step-wise and the minimum inhibitor concentration (MIC) required for preventing a given increase in ΔP over a given time period can be determined. […]
To prepare the test water, each water composition was divided into two parts. […] The pH of the individual waters was also measured and adjusted. […]

O=P(O)(O)CN(CCCCCCN(CP(=O)(O)O)CP(=O)(O)O)CCCCCCN(CP(=O)(O)O)CP(=O)(O)O [BHMTPA, bis(hexamethylene) triamine penta(methylene phosphonic acid)]
BIODEGRADATION by OECD 306 Max, 28 d (%) [1]: 6%

O=P(O)(O)CN(CCN(CP(=O)(O)O)CP(=O)(O)O)CCN(CP(=O)(O)O)CP(=O)(O)O [DETA, diethylene triamine penta(methylene phosphonic acid)]
BIODEGRADATION by OECD 306 Max, 28 d (%) [1]: 0%
BIODEGRADATION by OECD 306 Max, 28 d (%) ([1]; listed as Phosphonate 1): 0%
MIC Field I (ppm) [2]: 6-8 ppm

O=P(O)(O)CN(CCO)CP(=O)(O)O [MEA, monoethanolamine bis(methylene phosphonic acid)]
BIODEGRADATION by OECD 306 Max, 28 d (%) [1]: 6%
BIODEGRADATION by OECD 306 Max, 63 d (%) [1]: 3%

O=P(O)(O)CN(CCN(CCN(CP(=O)(O)O)CP(=O)(O)O)CP(=O)(O)O)CCN(CP(=O)(O)O)CP(=O)(O)O [TETHMPA, tri-ethylene tetra amine hexa(methylene phosphonic acid)]
BIODEGRADATION by OECD 306 Max, 28 d (%) [1]: 0%

BAEE
BIODEGRADATION by OECD 306 Max, 28 d (%) [1]: 0%
BIODEGRADATION by OECD 306 Max, 63 d (%) [1]: 5%
